Legend:
[1] = biological target: T1, PTP1B (Homo sapiens, UniProt P18031); experiment: PTP1B inhibition (IC50); format: biochemical
T1 sequence (P18031 1-435): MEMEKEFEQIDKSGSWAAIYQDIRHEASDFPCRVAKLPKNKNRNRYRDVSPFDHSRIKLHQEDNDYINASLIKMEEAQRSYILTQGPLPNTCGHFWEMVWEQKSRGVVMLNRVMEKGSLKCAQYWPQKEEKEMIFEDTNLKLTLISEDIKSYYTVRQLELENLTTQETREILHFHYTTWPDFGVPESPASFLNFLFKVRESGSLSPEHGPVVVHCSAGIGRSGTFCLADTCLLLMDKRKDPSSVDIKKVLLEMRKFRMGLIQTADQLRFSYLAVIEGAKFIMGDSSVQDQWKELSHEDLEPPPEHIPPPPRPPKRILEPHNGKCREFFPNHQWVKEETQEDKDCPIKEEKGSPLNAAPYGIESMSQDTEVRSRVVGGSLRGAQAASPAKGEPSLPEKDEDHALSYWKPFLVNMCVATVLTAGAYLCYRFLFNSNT

[2] = biological target: HPTPβ (Homo sapiens, UniProt P23467); experiment: HPTPβ inhibition (IC50); format: biochemical
Sequence of HPTPβ (P23467 23-1997): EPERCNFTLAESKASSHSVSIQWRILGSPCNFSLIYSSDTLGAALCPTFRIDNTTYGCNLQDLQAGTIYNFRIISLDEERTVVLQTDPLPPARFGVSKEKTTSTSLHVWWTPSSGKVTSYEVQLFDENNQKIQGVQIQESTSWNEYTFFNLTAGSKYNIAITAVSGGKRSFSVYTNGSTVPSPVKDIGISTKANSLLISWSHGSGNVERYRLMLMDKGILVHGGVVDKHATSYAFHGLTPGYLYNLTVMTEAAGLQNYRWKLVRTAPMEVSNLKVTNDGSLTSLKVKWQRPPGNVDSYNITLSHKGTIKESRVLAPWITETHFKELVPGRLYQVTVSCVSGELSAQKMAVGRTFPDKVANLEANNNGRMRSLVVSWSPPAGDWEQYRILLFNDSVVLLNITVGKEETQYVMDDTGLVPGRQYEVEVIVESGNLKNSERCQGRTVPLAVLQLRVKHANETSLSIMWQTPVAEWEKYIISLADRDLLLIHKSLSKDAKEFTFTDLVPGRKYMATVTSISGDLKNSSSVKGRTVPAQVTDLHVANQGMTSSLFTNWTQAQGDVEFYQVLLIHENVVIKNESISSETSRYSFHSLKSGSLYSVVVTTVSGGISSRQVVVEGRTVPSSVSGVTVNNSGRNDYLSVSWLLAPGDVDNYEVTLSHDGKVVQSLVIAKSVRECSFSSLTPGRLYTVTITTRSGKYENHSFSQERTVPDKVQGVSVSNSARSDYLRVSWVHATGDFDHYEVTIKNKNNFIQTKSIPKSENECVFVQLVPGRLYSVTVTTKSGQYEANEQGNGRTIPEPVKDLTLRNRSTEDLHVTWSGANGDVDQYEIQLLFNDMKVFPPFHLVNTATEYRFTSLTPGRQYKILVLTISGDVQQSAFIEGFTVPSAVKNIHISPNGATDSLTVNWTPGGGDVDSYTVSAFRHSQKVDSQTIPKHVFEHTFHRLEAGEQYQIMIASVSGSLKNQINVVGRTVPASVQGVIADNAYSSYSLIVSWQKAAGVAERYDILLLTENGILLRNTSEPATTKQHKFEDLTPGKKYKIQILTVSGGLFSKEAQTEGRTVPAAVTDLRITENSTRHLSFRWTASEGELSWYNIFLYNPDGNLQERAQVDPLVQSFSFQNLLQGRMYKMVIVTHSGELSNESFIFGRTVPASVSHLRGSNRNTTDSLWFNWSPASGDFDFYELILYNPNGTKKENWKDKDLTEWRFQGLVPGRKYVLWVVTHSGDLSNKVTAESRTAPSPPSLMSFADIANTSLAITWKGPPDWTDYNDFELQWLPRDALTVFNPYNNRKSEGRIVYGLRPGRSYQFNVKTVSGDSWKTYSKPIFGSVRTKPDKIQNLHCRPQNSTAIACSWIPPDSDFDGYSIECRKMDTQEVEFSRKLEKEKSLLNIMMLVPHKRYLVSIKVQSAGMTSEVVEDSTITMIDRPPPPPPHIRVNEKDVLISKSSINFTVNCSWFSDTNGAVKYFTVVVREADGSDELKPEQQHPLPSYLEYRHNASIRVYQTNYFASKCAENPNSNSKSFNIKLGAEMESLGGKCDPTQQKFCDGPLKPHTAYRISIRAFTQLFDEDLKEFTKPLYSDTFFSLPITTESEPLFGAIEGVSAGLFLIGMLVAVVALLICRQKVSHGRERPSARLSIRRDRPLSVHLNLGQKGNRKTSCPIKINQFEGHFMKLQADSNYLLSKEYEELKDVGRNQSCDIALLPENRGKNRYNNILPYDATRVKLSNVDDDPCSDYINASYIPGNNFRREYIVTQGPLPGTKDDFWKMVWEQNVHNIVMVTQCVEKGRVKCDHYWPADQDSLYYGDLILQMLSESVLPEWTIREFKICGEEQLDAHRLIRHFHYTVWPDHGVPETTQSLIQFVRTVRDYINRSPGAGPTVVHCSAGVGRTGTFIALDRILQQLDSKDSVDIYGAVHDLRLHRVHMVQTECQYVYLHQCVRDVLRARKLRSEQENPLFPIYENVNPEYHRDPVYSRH

Molecule | IC50 [1] [nM] | IC50 [2] [nM]
COC(=O)N[C@@H](Cc1ccccc1)C(=O)N[C@@H](Cc1ccc(NS(=O)(=O)O)cc1)c1csc(-c2ccco2)n1 | 5000 | 
Cc1nc([C@H](Cc2ccc(NS(=O)(=O)O)cc2)NC(=O)OC(C)(C)C)cs1 | 18900 | 33
CCOC(=O)Cc1csc([C@H](Cc2ccc(NS(=O)(=O)O)cc2)NC(=O)OC(C)(C)C)n1 | 50000 | 167
COC(=O)N[C@@H](Cc1ccccc1)C(=O)N[C@@H](Cc1ccc(NS(=O)(=O)O)cc1)c1nc(C2CCCCC2)cs1 [4-{(S)-2-(4-Cyclohexylthiazol-2-yl)-2-[(S)-2-(methoxycarbonylamino)-3-phenyl-propanamido]ethyl}phenylsulfamic acid] | 1780 | 
CC(C)(C)OC(=O)N[C@@H](Cc1ccccc1)C(=O)N[C@@H](Cc1ccc(NS(=O)(=O)O)cc1)c1csc(-c2ccccc2)n1 [4-{(S)-2-(S)-2-(tert-Butoxycarbonylamino)-3-phenylpropanamido-2-(2-phenylthiazol-4-yl)}phenylsulfamic acid] | 905 | 
COC(=O)N[C@@H](Cc1ccccc1)C(=O)N[C@@H](Cc1ccc(NS(=O)(=O)O)cc1)c1csc(-c2sccc2C)n1 [4-{(S)-2-[(S)-2-(Methoxycarbonylamino)-3-phenylpropanamido]-2-[2-(3-methylthiophen-2-yl)thiazol-4-yl]ethyl}phenylsulfamic acid] | 1090 | 
Cc1csc([C@H](Cc2ccc(NS(=O)(=O)O)cc2)NC(=O)C(C)(C)C)n1 [(S)-4-(2-(4-Methylthiazol-2-yl)-2-pivalamidoethyl)phenyl-sulfamic acid] | 50000 | 

The remaining lines, values ahead:

IC50 [1] [nM] | IC50 [2] [nM] | Molecule
299 |  | 4-((S)-2-(4-Ethylthiazol-2-yl)-2-{(S)-2-[2-(methoxycarbonylamino)-acetamido]-3-phenylpropanamido}ethyl)phenylsulfamic acid
390 |  | CCc1nc([C@H](Cc2ccc(NS(=O)(=O)O)cc2)NC(=O)[C@H](Cc2ccccc2)NC(=O)OC)sc1-c1ccccc1 [4-{(S)-2-(4-Ethyl-5-phenylthiazol-2-yl)-2-[(S)-2-(methoxy-carbonylamino)-3-phenyl-propanamido]ethyl}phenylsulfamic acid]
950 |  | COC(=O)N[C@@H](Cc1ccccc1)C(=O)N[C@@H](Cc1ccc(NS(=O)(=O)O)cc1)c1csc(-c2sccc2Cl)n1 [4-{(S)-2-[2-(3-Chlorothiophen-2-yl)thiazol-4-yl]-2-[(S)-2-(methoxycarbonylamino)-3-phenylpropanamido]ethyl}phenylsulfamic acid]
370 |  | COC(=O)N[C@@H](Cc1ccccc1)C(=O)N[C@@H](Cc1ccc(NS(=O)(=O)O)cc1)c1nc(-c2ccc(Cl)s2)cs1 [4-{(S)-2-[4-(5-Chlorothiophen-2-yl)thiazol-2-yl]-2-[(S)-2-(methoxycarbonylamino)-3-phenylpropanamido]ethyl}phenyl-sulfamic acid]
597 |  | COC(=O)N[C@@H](Cc1ccccc1)C(=O)N[C@@H](Cc1ccc(NS(=O)(=O)O)cc1)c1nc(-c2ccccc2)cs1 [4-{(S)-2-[(S)-2-(Methoxycarbonylamino)-3-phenylpropanamido]-2-(4-phenylthiazol-2-yl)ethyl}phenylsulfamic acid]
604 |  | COC(=O)N[C@@H](Cc1ccccc1)C(=O)N[C@@H](Cc1ccc(NS(=O)(=O)O)cc1)c1csc(-c2cccs2)n1 [4-{(S)-2-[(S)-2-(Methoxycarbonylamino)-3-phenylpropanamido]-2-[2-(thiophen-2-yl)thiazol-4-yl]ethyl}phenylsulfamic acid]
990 |  | COC(=O)N[C@@H](Cc1ccccc1)C(=O)N[C@@H](Cc1ccc(NS(=O)(=O)O)cc1)c1nc(-c2cccs2)cs1 [4-{(S)-2-[(S)-2-(Methoxycarbonylamino)-3-phenylpropanamido]-2-[4-(thiophen-2-yl)thiazol-2-yl]ethyl}phenylsulfamic acid]
508 |  | COC(=O)N[C@@H](Cc1ccccc1)C(=O)N[C@@H](Cc1ccc(NS(=O)(=O)O)cc1)c1csc(-c2ccccc2)n1 [4-{(S)-2-[(S)-2-(Methoxycarbonylamino)-3-phenylpropionamido]-2-(2-phenylthiazole-4-yl)ethyl}phenylsulfamic acid]
